Test results as given in patent US8536227B2, “Modulators of protein kinase signaling” (Novotyr Therapeutics Ltd., priority 2008, dated 2013).
pIC50: −log10 of the molar value.

Legend:
[1] = system: Human ovary cancer A2780 cells xenografts; assay: Inhibition of ovarian A2780 tumor growth in vivo (xenograft); set-up: species or system Nude:Hsd mice; details: A2780 xenograft in nude mice
Experimental: Groups were composed of 7-8 mice per group.
The procedure was followed for the A2780 ovary cancer cell in-vivo study with the following modifications:
The Veh group received PBS. The CDDP group received 8 mg/kg CDDP (Cisplatin) twice a week.

[2] = system: IGF1R related cell signaling in human breast cancer MCF7 cells; details: FIG. 15; for IGF1-induced tyrosine phosphorylation of IRS1: 50 ng/ml IGF-1 stimulation
Experimental: (§2) Tyrosine autophosphorylation of the β-subunit of IGF1R as well as downstream signaling induced by IGF1R were assayed in human breast cancer MCF7 cells and in melanoma A375 cells. Cells were seeded in 6-well plates (250,000 cells/well) and 24 hours later medium was replaced by serum-free medium (RPMI supplemented with 100 units/ml penicillin and 100 μg/ml streptomycin). Following 20 hours of serum-starvation, medium was replaced with serum-free medium containing various concentrations of the inhibitors in 0.1% DMSO for an additional 4-5 hours. […] Equal amounts of protein per lane were separated by 8% SDS-PAGE and transferred to a nitrocellulose membrane (Sartorius AG). […] Detection was performed with horseradish peroxidase-conjugated secondary antibody using the ECL system. Blots were then stripped of antibodies, blocked with TBST with 5% low fat milk and re-probed with antibodies detecting both the phosphorylated and the non-phosphorylated corresponding proteins e.g. IGF1Rβ, IRS1, PKB, and ERK. Anti-actin antibodies served as control.
(§3) In addition, lysates were prepared from cells exposed to inhibitors at various concentrations for 24 hours in the presence or the absence of FCS without stimulation. Lysate preparation and western blot were performed as described above.

[3] = system: IGF1R related cell signaling in human melanoma A375 cells; details: FIGS. 14 and 16; for IGF1-induced tyrosine phosphorylation of IRS1: 50 ng/ml IGF-1 stimulation
Experimental: as §2, §3

[4] = system: Human melanoma A375 cells xenografts; details: A375 xenograft in nude mice, IP 50 mg/kg daily or 100 mg/kg every other day
Experimental: Human melanoma A375 cells (ATCC, 2×10^6 cells per mouse) were injected subcutaneously into the flank of Nude:Hsd mice. Eight days later, when tumors were formed, mice were divided into 3 groups with similar average tumor size of 120 mm^3. […] The Veh group received daily 2% EtOH, 6% Tween-80 in DDW at volume of 10 ml/kg. Groups were composed of 7-8 mice per group. The length (l) and the width (w) of the tumors were measured twice a week, as well as the mouse body weight. The volumes of the tumors were calculated as follows: v=lw^2/2. Graphs present average volumes of the tumors versus days following treatment initiation.
The mice were treated with daily or alternate day IP injections, at the specified doses.

U138MG cells = assay: cells; details: Homo sapiens, U138-MG, 168 h, read-out: CF (colony formation in soft agar) IC50
Experimental: (§1) Suspensions of separated A375 and U138MG cells were plated in 50 μl growth medium containing 0.3% agar on top of a 100 μl layer of growth medium containing 1% agar in 96-well plates. Growth medium (50 μl) supplemented with inhibitors at various concentrations was added on top. Six to seven days after plating, colonies were stained with 0.5% MTT for 4 hours, and dye was then extracted by the addition of 100 μl dissolving buffer, containing 5 gr sodium dodecyl sulfate, 8.75 ml DDW, 12.5 ml dimethyl formamide, 0.5 ml acetic acid and 0.07 ml HCl. Following incubation overnight at 37° C., optical density values were read at 570 nm in ELISA plate reader. The data was analyzed in Microsoft Excel, using the vehicle control as 100% proliferation. The assays were performed in triplicates. The values of IC50 were derived from the dose-dependent growth curves obtained.

A375 cells = assay: cells; details: Homo sapiens, A-375, 168 h, read-out: CF (colony formation in soft agar) IC50
Experimental: as §1

| Structure (SMILES) | inhibition of ovarian tumor growth ([1]; 8 mg/kg twice a week) [%] | IGF1-induced tyrosine phosphorylation of IRS1 [2] | serine phosphorylation of IRS1 (pS636/639-IRS1) and IRS1 level [2] | IGF1-induced tyrosine phosphorylation of IRS1 [3] | serine phosphorylation of IRS1 (pS636/639-IRS1) and IRS1 level [3] | inhibition of melanoma tumor growth [4] [%] | pIC50 (U138MG cells) | pIC50 (A375 cells) | inhibition of ovarian tumor growth ([1]; IP daily 25 mg/kg in PBS) [%] |
| --- | --- | --- | --- | --- | --- | --- | --- | --- | --- |
| [NH2][Pt]([NH2])([Cl])[Cl] [CDDP, Cisplatin, reference compound] | 14 |  |  |  |  |  |  |  |  |
| Oc1cc(/C=C/C(=S)NCc2cc(O)c(O)c(O)c2Br)cc(Br)c1O [Compound 4] |  | inhibited | induce serine phosphorylation of IRS1, followed by its degradation |  |  |  |  |  |  |
| Oc1cc(CNC(=S)/C=C/c2ccc(O)c(O)c2Br)cc(O)c1O [Compound 5] |  | inhibited | induce serine phosphorylation of IRS1, followed by its degradation | inhibited | induce serine phosphorylation of IRS1, followed by its degradation | 70 | 5.59 | 6.40 | 45 |
| Oc1cc(Br)c(/C=C/C(=S)NCc2cc(O)c(O)c(O)c2)cc1O [Compound 6] |  |  |  | inhibited | induce serine phosphorylation of IRS1, followed by its degradation |  |  |  |  |
